pIC50: −log10 of the molar value. Values belong to the compound of their own block, whether it stands above or below them.
How the values were obtained:
MAO-A = target: T1, MAO-A (Homo sapiens, UniProt P21397); assay: Inhibition of MAO-A (unknown origin) at 0.4 uM relative to control
T1 sequence (P21397 whole entry): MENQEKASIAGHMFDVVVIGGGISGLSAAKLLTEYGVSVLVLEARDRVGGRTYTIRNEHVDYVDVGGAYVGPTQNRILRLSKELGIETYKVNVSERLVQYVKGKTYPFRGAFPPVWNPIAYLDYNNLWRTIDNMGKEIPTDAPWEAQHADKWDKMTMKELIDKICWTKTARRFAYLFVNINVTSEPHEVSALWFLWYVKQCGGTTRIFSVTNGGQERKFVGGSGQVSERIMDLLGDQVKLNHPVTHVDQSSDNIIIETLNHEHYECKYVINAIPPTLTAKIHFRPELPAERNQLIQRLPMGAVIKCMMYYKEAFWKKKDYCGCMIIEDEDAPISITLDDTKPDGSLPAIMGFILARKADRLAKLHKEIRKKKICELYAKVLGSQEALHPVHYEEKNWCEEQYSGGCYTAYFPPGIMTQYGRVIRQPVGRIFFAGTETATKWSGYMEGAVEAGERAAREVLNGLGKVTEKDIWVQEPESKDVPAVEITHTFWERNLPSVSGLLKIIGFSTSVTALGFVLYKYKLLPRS

MAO-B = target: T2, MAO-B (Homo sapiens, UniProt P27338); assay: Inhibition of MAO-B (unknown origin) at 0.4 uM relative to control
T2 sequence (P27338 whole entry): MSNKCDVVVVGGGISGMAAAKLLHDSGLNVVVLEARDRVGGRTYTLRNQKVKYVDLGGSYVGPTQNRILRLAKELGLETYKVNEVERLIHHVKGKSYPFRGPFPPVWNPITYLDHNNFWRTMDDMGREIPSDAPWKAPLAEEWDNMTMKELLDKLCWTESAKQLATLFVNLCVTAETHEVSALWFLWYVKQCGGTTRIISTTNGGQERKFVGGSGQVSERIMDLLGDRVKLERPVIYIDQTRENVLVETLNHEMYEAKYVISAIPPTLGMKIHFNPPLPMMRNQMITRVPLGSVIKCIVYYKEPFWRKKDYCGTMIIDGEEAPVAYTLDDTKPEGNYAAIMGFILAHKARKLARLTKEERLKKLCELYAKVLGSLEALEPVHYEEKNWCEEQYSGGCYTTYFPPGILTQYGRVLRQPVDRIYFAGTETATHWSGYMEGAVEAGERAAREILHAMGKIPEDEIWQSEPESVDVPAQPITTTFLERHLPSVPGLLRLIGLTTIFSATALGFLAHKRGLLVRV

SGC-7901 = assay: Antiproliferative activity against human SGC-7901 cells assessed as cell growth inhibition; assay type: functional, cell-based
[1] = Antiproliferative activity against human SGC7901/ADR cells assessed as cell growth inhibition; assay type: functional, cell-based; conditions: SGC-7901
[2] = target: T3, Lysine-specific histone demethylase 1A (Homo sapiens, UniProt O60341); assay: Inhibition of LSD1 (unknown origin) at 0.4 uM relative to control
[3] = target: T3, Lysine-specific histone demethylase 1A
Histone deacetylase 2 = Histone deacetylase 2 (Homo sapiens, UniProt Q92769); assay: Inhibition of HDAC2 (unknown origin)
Histone deacetylase 2, sequence (Q92769 whole entry): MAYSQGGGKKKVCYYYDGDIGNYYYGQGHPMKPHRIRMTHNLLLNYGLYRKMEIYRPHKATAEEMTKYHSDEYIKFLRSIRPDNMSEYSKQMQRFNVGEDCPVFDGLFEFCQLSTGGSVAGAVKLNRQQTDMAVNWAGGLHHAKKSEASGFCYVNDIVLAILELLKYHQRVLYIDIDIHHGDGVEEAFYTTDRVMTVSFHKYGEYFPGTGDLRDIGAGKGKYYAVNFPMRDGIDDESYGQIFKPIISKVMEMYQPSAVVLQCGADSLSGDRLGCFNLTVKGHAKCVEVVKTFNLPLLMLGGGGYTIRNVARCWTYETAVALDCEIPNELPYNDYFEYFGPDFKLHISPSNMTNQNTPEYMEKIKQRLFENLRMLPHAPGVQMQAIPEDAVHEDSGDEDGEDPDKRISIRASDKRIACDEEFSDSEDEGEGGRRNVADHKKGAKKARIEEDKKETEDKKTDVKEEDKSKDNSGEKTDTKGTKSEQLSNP

MDA-MB-231 = assay: Antiproliferative activity against human MDA-MB-231 cells assessed as cell growth inhibition; assay type: functional, cell-based
MCF7 = assay: cells; conditions: Homo sapiens
A549 [4] = assay: cells; conditions: Homo sapiens
Bel-7402 = assay: cells; conditions: Homo sapiens
THP-1 = assay: cells; conditions: Homo sapiens
A549 [5] = system: A549
NCI-H460 = assay: cells; conditions: Homo sapiens
MGC-803 = assay: cells; conditions: Homo sapiens
in vitro = conditions: human, THLE-2 cells
HepG2 = assay: Antiproliferative activity against human HepG2 cells assessed as cell growth inhibition; assay type: functional, cell-based
PC-3 = assay: Antiproliferative activity against human PC-3 cells assessed as cell growth inhibition; assay type: functional, cell-based
HCT-116 = assay: Antiproliferative activity against human HCT-116 cells assessed as cell growth inhibition; assay type: functional, cell-based
SK-OV-3 = assay: Antiproliferative activity against human SK-OV-3 cells assessed as cell growth inhibition; assay type: functional, cell-based

SMILES: Oc1ccc(CC2NCCc3cc(O)c(O)cc32)cc1 (configuration not stated) [HIGENAMINE]
pIC50 [3]: 5.83

SMILES: Oc1ccc(C2CNCCc3c2cc(O)c(O)c3Cl)cc1 (configuration not stated) [FENOLDOPAM]
pIC50 [3]: 6.05

SMILES: O=C(c1ccc(OCCN2CCCCC2)cc1)c1c(-c2ccc(O)cc2)sc2cc(O)ccc12 [RALOXIFENE]
pIC50 [3]: 5.68

SMILES: O=C(CC(=O)c1ccc(C(F)(F)F)cc1)Nc1cccc2c1CCCN2Cc1ccc(OC2CCNCC2)cc1
pIC50 (MCF7): 6.46 | pIC50 (A549 [4]): 5.07

SMILES: Cn1c(C(=O)CC(=O)Nc2cccc3c2CCCN3Cc2ccc(OC3CCNCC3)cc2)cc2ccccc21
pIC50 (MCF7): 5.15 | pIC50 (A549 [4]): 5.12

SMILES: Cn1c(C(=O)Nc2cccc3c2CCCN3Cc2ccc(OC3CCNCC3)cc2[N+](=O)[O-])cc2sccc21
pIC50 (MCF7): 5.63 | pIC50 (A549 [4]): 5.67

SMILES: Cn1c(C(=O)Nc2cccc3c2CCCN3Cc2ccc(OC3CCNCC3)cc2)cc2sccc21
pIC50 (MCF7): 5.16 | pIC50 (A549 [4]): 5.28

SMILES: Cn1c(C(=O)Nc2cccc3c2N(Cc2ccc(OC4CCNCC4)cc2)CCC3)cc2cc(F)ccc21
pIC50 [3]: 6.27

SMILES: CNCCCNCc1coc2cc(-c3ccc(C)cc3)c(-c3ccc(C#N)cc3)cc12
pIC50 (THP-1): 5.31 | pIC50 (MCF7): 5.47 | pIC50 (A549 [4]): 5.39 | pIC50 (NCI-H460): 5.73 | pIC50 (MGC-803): 5.19 | pIC50 (in vitro): 5.38

SMILES: O=S1(=O)CCCCN(S(=O)(=O)c2ccc(-c3cnc(C4CC4)o3)cc2)c2ccccc21
pIC50 (HepG2): 5.66 | pIC50 (PC-3): 5.23 | pIC50 (HCT-116): 6.58 | pIC50 (SK-OV-3): 5.79

Second part, led by results:

inhibition at 0.4 µM (MAO-A): 23.7% | inhibition at 0.4 µM (MAO-B): 31% | pIC50 (SGC-7901): 5.71 | inhibition [2]: 99.3%
SMILES: COc1cc2c(c(O)c1OC)c(=O)c1ccccc1n2C [ARBORININE]
pIC50 [1]: 6.62

pIC50 (Histone deacetylase 2): < 5.00
SMILES: Cc1ccc(-c2cc(/C=C/c3ccc(C(=O)NO)cc3)ccn2)c(F)c1

pIC50 (Histone deacetylase 2): < 4.00
SMILES: N/C(=N\O)c1cccc(/C=C/c2ccnc(-c3cc(F)ccc3O)c2)c1

pIC50 (MDA-MB-231): 4.46 | pIC50 (MCF7): 4.88
SMILES: Nc1ccc(C(=O)/C=C/c2ccccc2F)cc1

pIC50 (Bel-7402): 6.49
SMILES: COc1ccc(S(=O)(=O)N(CCSC(=S)N2CCN(C)CC2)c2cc(OC)c(OC)c(OC)c2)cc1

pIC50 (THP-1): 5.67 | pIC50 (MCF7): 2.30 | pIC50 (A549 [4]): 5.80
SMILES: COc1cc(F)c(/C=C/c2ccc(C(=O)NO)cc2)cc1OC

pIC50 (THP-1): 5.47
SMILES: COc1cc(Br)c(/C=C/c2ccc(C(=O)NO)cc2)cc1OC
IC5 (A549 [5]): 6.23 µM

From ChEMBL document CHEMBL5223090, “Annual review of lysine-specific demethylase 1 (LSD1/KDM1A) inhibitors in 2021” (Eur J Med Chem, 2022)
